Assay results reported in patent EP4260865B1, “COMPOSITION COMPRISING PLANT EXTRACTS FOR TREATING HYPERCHOLESTEROLEMIA” (Anvest Group S.r.l., priority 2022, dated 2023).

How the values were obtained:
HMG CoA-reductase enzyme = target: T1, HMG CoA-reductase enzyme (Homo sapiens, UniProt P04035); assay: HMG-CoA reductase activity in treated human liver cells (HUCPI), NADPH oxidation; type: cell-based; settings: administered once in the 24-hour period, Figure 4
T1 construct: First-line human liver cells (HUCPI) were cultured and treated with some compositions; endogenous in cells; host or cells: HUCPI first-line human liver cells
T1 sequence (P04035 1-888): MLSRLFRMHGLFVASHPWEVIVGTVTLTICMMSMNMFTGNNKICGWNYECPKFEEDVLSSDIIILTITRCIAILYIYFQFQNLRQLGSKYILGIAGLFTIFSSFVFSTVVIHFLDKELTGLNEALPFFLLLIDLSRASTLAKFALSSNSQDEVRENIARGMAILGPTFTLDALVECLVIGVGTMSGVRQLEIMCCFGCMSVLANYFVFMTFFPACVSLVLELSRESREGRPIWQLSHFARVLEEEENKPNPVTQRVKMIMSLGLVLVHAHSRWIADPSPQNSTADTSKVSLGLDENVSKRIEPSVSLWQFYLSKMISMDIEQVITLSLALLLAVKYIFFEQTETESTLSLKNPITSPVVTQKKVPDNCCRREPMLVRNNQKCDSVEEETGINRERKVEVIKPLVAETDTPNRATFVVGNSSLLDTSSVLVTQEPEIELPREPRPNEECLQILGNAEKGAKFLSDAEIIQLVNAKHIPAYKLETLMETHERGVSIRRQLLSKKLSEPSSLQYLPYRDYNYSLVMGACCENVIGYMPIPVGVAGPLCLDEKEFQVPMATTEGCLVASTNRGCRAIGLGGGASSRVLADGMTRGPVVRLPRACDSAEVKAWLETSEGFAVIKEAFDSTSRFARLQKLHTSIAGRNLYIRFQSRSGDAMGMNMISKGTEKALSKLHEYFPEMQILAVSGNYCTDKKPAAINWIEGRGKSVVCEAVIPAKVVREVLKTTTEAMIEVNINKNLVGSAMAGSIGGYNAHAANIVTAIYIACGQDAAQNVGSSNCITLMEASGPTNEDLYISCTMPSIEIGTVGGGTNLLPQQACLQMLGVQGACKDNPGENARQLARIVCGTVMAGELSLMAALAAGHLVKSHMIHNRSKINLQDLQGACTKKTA
Method: First-line human liver cells (HUCPI) were cultured and treated with some compositions, and with atorvastatin as a control, to evaluate the inhibition capacity of the HMG CoA-reductase enzyme. The enzymatic activity of HMG-CoA reductase was evaluated by measuring the dependent oxidation of NAPDH. For each sample, the measurements were carried out at least in triplicate, and the results were reported as the average of the single values.
The HUCPI cells were treated with the composition of Example 1 and with solutions of single extracts of Policosanols, and a mixture containing Policosanols, Oleuropein and Ipomea batata, in amounts equivalent to the ingredients of the composition of Example 1. After treatment, the cells were lysed and the catalytic fragment of the protein HMGR was cloned, overexpressed, and purified.

PCSK9 = PCSK9 inhibition in HepG2 liver cells (mRNA levels by qRT-PCR); type: cell-based, human; settings: 40 µM berberine or 40 µM equivalent berberine, compared to the control
Method: Immortalized HepG2 human hepatocellular carcinoma cells were cultured and then treated with berberine extract, and the composition of Example 1. After treatment, the cells were lysed and the mRNA (messenger RNA) levels for PCSK9 expression were evaluated by qRT-PCR using human-specific PCR primers. For each sample, the measurements were carried out at least in triplicate and the results were reported as the average of the single values.
The efficacy of the invention composition was tested against HepG2 immortalized human hepatocarcinoma cells. […] The inhibition of the messenger RNA (mRNA) encoding the translation of the protein PCSK9 plays a key role in the mechanisms of action aimed at maximizing the hepatic reuptake of LDL cholesterol. […]
As it is possible to see in Figure 1, the mRNA levels related to PCSK9 expression of HepG2 cells are influenced by treatment with 40 µM of berberine, showing a reduction of about 25% after 6 hours and of 40% after 24 hours, compared to the control. […] In fact, a reduction of more than 40% was recorded after 6 hours from the treatment, while at 24 hours inhibition levels equal to about 60% were detected, due to a synergistic effect also of the other components present in the mixture, capable of influencing the PCSK9-LDLR metabolic pathway.

CC(C)c1c(C(=O)Nc2ccccc2)c(-c2ccccc2)c(-c2ccc(F)cc2)n1CC[C@@H](O)C[C@@H](O)CC(=O)O [atorvastatin]
activity of HMRG (HMG CoA-reductase enzyme): significantly reduced the activity of HMRG

COc1ccc2cc3[n+](cc2c1OC)CCc1cc2c(cc1-3)OCO2 [berberine]
reduction of mRNA levels related to PCSK9 expression (PCSK9; after 6 hours): about 25% | reduction of mRNA levels related to PCSK9 expression (PCSK9; after 24 hours): 40%
